From patent publication US8562986B2, “Engineered anti-alpha V-integrin hybrid antibodies” (Merck Patent GmbH, priority 2007, dated 2013)

System: HUVEC
Experiment: cells
Conditions: for IC50: HUVEC; for additive effect with Cilengitide: chemotherapeutic combined with Cilengitide; for additive effect with DI-17E6: chemotherapeutic combined with DI-17E6; for additive effect with Mab 17E6: chemotherapeutic combined with Mab 17E6
Protocol: The experimental design gives answer to the question whether blockade of the one lowered the IC50 of the other for blockade endothelial cell growth in the presence of tumor growth factors VEGFA and FGF2.
Plates were coated with 100 μl VN at 1 μg/ml in PBS per 96-well at 4° C. overnight. […] When added in combination the two test substances were mixed at the starting concentrations and the mixture was serially diluted as for the single agents alone. In some assays the chemotherapeutics were serially diluted in the presence of a constant amount of the alpha V blockers at the IC50 or IC70 concentrations. Plates were incubated for 72 hours, then relative cell number was determined by the addition of 20 ul/well Alamar Blue (Resazurin).
Points were run in duplicate or in triplicate. Reagent blanks, containing media plus Alamar Blue without cells, were run on each plate.
Tests were routinely run using HUVEC in media containing 10 ng/ml FGF-2 or HDMVEC in media containing 10 ng/ml VEGF.

[1] = 10 ng/ml FGF-2, 72 hours, single agent
[2] = Homo sapiens, 72 h, 10 ng/ml FGF-2, 72 hours, single agent

Row | Compound | IC50 [1] | additive effect with Cilengitide | additive effect with DI-17E6 | additive effect with Mab 17E6 | IC50 [2] | IC50 (Homo sapiens, 72 h)
1 | O=c1[nH]cc(F)c(=O)[nH]1 [5FU] | 14.5 µM | yes | yes | yes |  | 
2 | CC[C@@]1(O)C(=O)OCc2c1cc1n(c2=O)Cc2cc3ccccc3nc2-1 [Camptothecin] |  | yes | yes | yes | 0.08 µM | 
3 | N.N.[Cl][Pt][Cl] [Cisplatinin] | 13.2 µM | yes | yes | yes |  | 
4 | COc1cccc2c1C(=O)c1c(O)c3c(c(O)c1C2=O)C[C@@](O)(C(=O)CO)C[C@@H]3O[C@H]1C[C@H](N)[C@H](O)[C@H](C)O1 [Doxorubicin] |  | yes | yes | yes | 0.2 µM | 
5 | C[C@]12CC[C@@H]3c4ccc(OC(=O)N(CCCl)CCCl)cc4CC[C@H]3[C@@H]1CC[C@@H]2O [Estramustine] |  | no | no | no |  | 182 µM
6 | COc1cc([C@@H]2c3cc4c(cc3[C@@H](O[C@@H]3O[C@@H]5CO[C@@H](C)O[C@H]5[C@H](O)[C@H]3O)[C@H]3COC(=O)[C@H]23)OCO4)cc(OC)c1O [Etoposide] |  | yes | yes | yes | 0.7 µM | 
